Test results published in ChEMBL document CHEMBL1255340, “In vitro activities of the Rx-01 oxazolidinones against hospital and community pathogens” (2008).
In brackets after ≈: the same amount, converted by molar mass. Several values for one entry are separate records, joined by “and”; a condition that tells them apart may be missing. Equal entries are not always repeated.

Legend:
Format in all cases: functional
[1] = tested on: Enterococcus faecium; assay: Antimicrobial activity against Enterococcus faecium A8948
[2] = tested on: Streptococcus pneumoniae; assay: Antimicrobial activity against Streptococcus pneumoniae 02J1175
[3] = tested on: Staphylococcus aureus; assay: Antimicrobial activity against Staphylococcus aureus A7817
[4] = tested on: Chlamydia trachomatis; assay: Antimicrobial activity against Chlamydia trachomatis isolated from human respiratory tract by broth microdilution method
[5] = tested on: Enterococcus faecium; assay: Antimicrobial activity against Enterococcus faecium A5959
[6] = tested on: Staphylococcus epidermidis; assay: Antimicrobial activity against Staphylococcus epidermidis A8934
[7] = tested on: Enterococcus faecalis; assay: Antimicrobial activity against Enterococcus faecalis A7789
[8] = tested on: Enterococcus faecalis; assay: Antimicrobial activity against Enterococcus faecalis A6343
[9] = tested on: Enterococcus faecium; assay: Antimicrobial activity against Enterococcus faecium A6348 harboring G2576U mutation in 23S rRNA
[10] = tested on: Legionella pneumophila; assay: Antimicrobial activity against Legionella pneumophila isolated from human respiratory tract by broth microdilution method
[11] = tested on: Staphylococcus aureus; assay: Antimicrobial activity against Staphylococcus aureus A8761
[12] = tested on: Staphylococcus aureus; assay: Antimicrobial activity against Staphylococcus aureus pLXM1 harboring cfr gene
[13] = tested on: Chlamydia pneumoniae; assay: Antimicrobial activity against Chlamydophila pneumoniae isolated from human respiratory tract by broth microdilution method
[14] = tested on: Staphylococcus capitis; assay: Antimicrobial activity against Staphylococcus capitis A8935
[15] = tested on: Enterococcus faecalis; assay: Antimicrobial activity against Enterococcus faecalis A5962
[16] = tested on: Haemophilus influenzae; assay: Antimicrobial activity against Haemophilus influenzae 54A1100
[17] = tested on: Enterococcus faecium; assay: Antimicrobial activity against Enterococcus faecium A6345
[18] = tested on: Streptococcus pyogenes; assay: Antimicrobial activity against Streptococcus pyogenes
[19] = tested on: Staphylococcus aureus; assay: Antimicrobial activity against Staphylococcus aureus A7820
[20] = tested on: Staphylococcus aureus; assay: Antimicrobial activity against Staphylococcus aureus A8727
[21] = tested on: Staphylococcus aureus; assay: Antimicrobial activity against Staphylococcus aureus A8833 harboring U2500A mutation in 23S rRNA
[22] = tested on: Enterococcus faecium; assay: Antimicrobial activity against vancomycin-resistant Enterococcus faecium nosocomial isolate
[23] = tested on: Enterococcus faecium; assay: Antimicrobial activity against Enterococcus faecium A8767
[24] = tested on: Enterococcus faecium; assay: Antimicrobial activity against Enterococcus faecium A5960
[25] = tested on: Enterococcus faecium; assay: Antimicrobial activity against Enterococcus faecium A6349
[26] = tested on: Enterococcus faecium; assay: Antimicrobial activity against Enterococcus faecium A9650
[27] = tested on: Enterococcus faecium; assay: Antimicrobial activity against Enterococcus faecium A6349 harboring G2576U mutation in 23S rRNA
[28] = tested on: Enterococcus faecium; assay: Antimicrobial activity against Enterococcus faecium A9621 by broth microdilution method
[29] = tested on: Haemophilus influenzae; assay: Antimicrobial activity against Haemophilus influenzae A1950
[30] = tested on: Streptococcus pyogenes; assay: Antimicrobial activity against Streptococcus pyogenes harboring mef(A) gene
[31] = tested on: Enterococcus faecium; assay: Antimicrobial activity against vancomycin-susceptible Enterococcus faecium nosocomial isolate by broth microdilution method
[32] = tested on: Staphylococcus aureus; assay: Antimicrobial activity against Staphylococcus aureus A8831 harboring U2500A mutation in 23S rRNA
[33] = tested on: Enterococcus faecium; assay: Antimicrobial activity against Enterococcus faecium A8130
[34] = tested on: Enterococcus faecalis; assay: Antimicrobial activity against Enterococcus faecalis ATCC 29212-P5 harboring G2576U mutation in 23S rRNA
[35] = tested on: Staphylococcus aureus; assay: Antimicrobial activity against Staphylococcus aureus A7819 harboring G2576U mutation in 23S rRNA
[36] = tested on: Staphylococcus hominis; assay: Antimicrobial activity against Staphylococcus hominis A7828
[37] = tested on: Streptococcus pneumoniae; assay: Antimicrobial activity against Streptococcus pneumoniae harboring mef(A) gene
[38] = tested on: Staphylococcus aureus; assay: Antimicrobial activity against Staphylococcus aureus pL150
[39] = tested on: Enterococcus faecalis; assay: Antimicrobial activity against Enterococcus faecalis A6350
[40] = tested on: Staphylococcus aureus; assay: Antimicrobial activity against Staphylococcus aureus ATCC 29213
[41] = tested on: Streptococcus pneumoniae; assay: Antimicrobial activity against Streptococcus pneumoniae nosocomial isolate
[42] = tested on: Staphylococcus aureus; assay: Antimicrobial activity against methicillin-resistant Staphylococcus aureus BK 11118
[43] = tested on: Streptococcus pneumoniae; assay: Antimicrobial activity against Streptococcus pneumoniae harboring erm(B) gene by broth microdilution method; settings: Streptococcus pneumoniae; read-out: MIC
[44] = tested on: Enterococcus faecalis; assay: Antimicrobial activity against vancomycin-resistant Enterococcus faecalis 03B1069
[45] = tested on: Streptococcus pneumoniae; assay: Antimicrobial activity against Streptococcus pneumoniae 02J1258
[46] = tested on: Streptococcus pneumoniae; assay: Antimicrobial activity against Streptococcus pneumoniae PU1071099 harboring 65WR66 deletion in ribosomal protein L4 by broth microdilution method
[47] = tested on: Moraxella catarrhalis; assay: Antimicrobial activity against Moraxella catarrhalis
[48] = tested on: Staphylococcus aureus; assay: Antimicrobial activity against methicillin resistant Staphylococcus aureus 67-0
[49] = tested on: Streptococcus pneumoniae; assay: Antimicrobial activity against Streptococcus pneumoniae harboring erm(B) and mef(A) gene
[50] = tested on: Enterococcus faecalis; assay: Antimicrobial activity against Enterococcus faecalis ATCC 29212
[51] = tested on: Staphylococcus aureus; assay: Antimicrobial activity against methicillin-resistant Staphylococcus aureus BK 11512
[52] = tested on: Streptococcus pneumoniae; assay: Antimicrobial activity against Streptococcus pneumoniae ribosomal mutant
[53] = Chlamydia trachomatis, read-out: MIC
[54] = Legionella pneumophila, read-out: MIC
[55] = Streptococcus pyogenes, read-out: MIC
[56] = Enterococcus faecium, read-out: MIC
[57] = Streptococcus pneumoniae, read-out: MIC

CC(=O)NC[C@H]1CN(c2ccc(N3CCOCC3)c(F)c2)C(=O)O1 [LINEZOLID]
MIC [1]: 8 mg/L (≈ 23.7 µM) | MIC [2]: 0.25 mg/L (≈ 0.741 µM) | MIC [3]: 64 mg/L (≈ 190 µM) | MIC [4]: 16 mg/L (≈ 47.4 µM) | MIC [4, 53]: 8 mg/L (≈ 23.7 µM) | MIC [5]: 32 mg/L (≈ 94.9 µM) | MIC [6]: 32 mg/L (≈ 94.9 µM) | MIC [7]: 64 mg/L (≈ 190 µM) | MIC [8]: 32 mg/L (≈ 94.9 µM) | MIC [9]: 64 mg/L (≈ 190 µM) | MIC [10]: 8 mg/L (≈ 23.7 µM) | MIC [10, 54]: 4 mg/L (≈ 11.9 µM) | MIC [11]: 16 mg/L (≈ 47.4 µM) | MIC [12]: 8 mg/L (≈ 23.7 µM) | MIC [13]: 1 mg/L (≈ 2.96 µM) | MIC [14]: 16 mg/L (≈ 47.4 µM) | MIC [15]: 32 mg/L (≈ 94.9 µM) | MIC [16]: 16 mg/L (≈ 47.4 µM) | MIC [17]: 32 mg/L (≈ 94.9 µM) | MIC [18]: 2 mg/L and 4 mg/L | MIC [18, 55]: 2 mg/L (≈ 5.93 µM) | MIC [19]: 64 mg/L (≈ 190 µM) | MIC [20]: 8 mg/L (≈ 23.7 µM) | MIC [21]: 64 mg/L (≈ 190 µM) | MIC [22]: 4 mg/L (≈ 11.9 µM) | MIC [22, 56]: 2 mg/L (≈ 5.93 µM) | MIC [23]: 8 mg/L (≈ 23.7 µM) | MIC [24]: 64 mg/L (≈ 190 µM) | MIC [25]: 16 mg/L (≈ 47.4 µM) | MIC [26]: 16 mg/L (≈ 47.4 µM) | MIC [27]: 16 mg/L (≈ 47.4 µM) | MIC [28]: 64 mg/L (≈ 190 µM) | MIC [29]: 16 mg/L (≈ 47.4 µM) | MIC [30]: 2 mg/L and 4 mg/L | MIC [30, 55]: 2 mg/L (≈ 5.93 µM) | MIC [31]: 8 mg/L (≈ 23.7 µM) | MIC [31, 56]: 4 mg/L (≈ 11.9 µM) | MIC [32]: 128 mg/L (≈ 379 µM) | MIC [33]: 32 mg/L (≈ 94.9 µM) | MIC [34]: 32 mg/L (≈ 94.9 µM) | MIC [35]: 64 mg/L (≈ 190 µM) | MIC [36]: 64 mg/L (≈ 190 µM)

CC(=O)NC[C@H]1CN(c2ccc(-c3ccc(CNCc4cnn[nH]4)cc3)c(F)c2)C(=O)O1 [RADEZOLID]
MIC [1]: ≤ 0.25 mg/L | MIC [2]: 0.25 mg/L (≈ 0.57 µM) | MIC [3]: 32 mg/L (≈ 73 µM) | MIC [4]: 1 mg/L (≈ 2.28 µM) | MIC [4, 53]: 0.5 mg/L (≈ 1.14 µM) | MIC [37]: 0.25 mg/L (≈ 0.57 µM) | MIC [37, 57]: 0.125 mg/L (≈ 0.285 µM) | MIC [38]: 1 mg/L (≈ 2.28 µM) | MIC [39]: 2 mg/L (≈ 4.56 µM) | MIC [5]: 4 mg/L (≈ 9.12 µM) | MIC [6]: 2 mg/L (≈ 4.56 µM) | MIC [7]: 4 mg/L (≈ 9.12 µM) | MIC [40]: 1 mg/L (≈ 2.28 µM) | MIC [8]: 4 mg/L (≈ 9.12 µM) | MIC [9]: 4 mg/L (≈ 9.12 µM) | MIC [10]: 2 mg/L (≈ 4.56 µM) | MIC [10, 54]: 1 mg/L (≈ 2.28 µM) | MIC [11]: 16 mg/L (≈ 36.5 µM) | MIC [41]: 0.25 mg/L (≈ 0.57 µM) | MIC [41, 57]: 0.125 mg/L (≈ 0.285 µM) | MIC [12]: 2 mg/L (≈ 4.56 µM) | MIC [13]: 1 mg/L (≈ 2.28 µM) | MIC [14]: ≤ 0.25 mg/L | MIC [15]: 1 mg/L (≈ 2.28 µM) | MIC [42]: 1 mg/L (≈ 2.28 µM) | MIC [16]: 0.5 mg/L (≈ 1.14 µM) | MIC [43]: ≤ 0.25 mg/L | MIC [44]: 0.5 mg/L (≈ 1.14 µM) | MIC [17]: 4 mg/L (≈ 9.12 µM) | MIC [19]: 16 mg/L (≈ 36.5 µM) | MIC [20]: 4 mg/L (≈ 9.12 µM) | MIC [21]: 32 mg/L (≈ 73 µM) | MIC [23]: 2 mg/L (≈ 4.56 µM) | MIC [24]: 4 mg/L (≈ 9.12 µM) | MIC [25]: 0.5 mg/L (≈ 1.14 µM) | MIC [26]: 0.5 mg/L (≈ 1.14 µM) | MIC [27]: 0.5 mg/L (≈ 1.14 µM) | MIC [45]: 0.25 mg/L (≈ 0.57 µM) | MIC [46]: 0.5 mg/L (≈ 1.14 µM) | MIC [28]: 4 mg/L (≈ 9.12 µM) | MIC [47]: 0.5 mg/L (≈ 1.14 µM) | MIC ([47]; Moraxella catarrhalis, read-out: MIC): ≤ 0.25 mg/L | MIC [29]: 1 mg/L (≈ 2.28 µM) | MIC [48]: 1 mg/L (≈ 2.28 µM) | MIC [31]: 0.5 mg/L (≈ 1.14 µM) | MIC [31, 56]: ≤ 0.25 mg/L | MIC [32]: 64 mg/L (≈ 146 µM) | MIC [49]: ≤ 0.25 mg/L | MIC [33]: 2 mg/L (≈ 4.56 µM) | MIC [50]: ≤ 0.25 mg/L | MIC [51]: 2 mg/L (≈ 4.56 µM) | MIC [34]: 1 mg/L (≈ 2.28 µM) | MIC [35]: 16 mg/L (≈ 36.5 µM) | MIC [52]: ≤ 0.25 mg/L | MIC [36]: 8 mg/L (≈ 18.2 µM)
